Laboratory results: patent US4500526A, “Cephalosporin derivatives” (Bristol-Myers Company, priority 1983, dated 1985)
In brackets after ≈: the same amount, converted by molar mass. Where two headings read alike, the source gives them in different places.

Experiments:
[1] = system: Penicillinresistant S. aureus (5 strains); assay: MIC, two-fold serial agar dilution, group (G+)-Ib; format: cell-based; conditions: Staphylococcus aureus, read-out: Geometric Mean of MIC
Experimental: (§1) In the primary evaluation of the compounds of this invention, the Minimum Inhibitory Concentrations (MIC's) of the compounds were determined by the two-fold serial agar dilution method in Mueller-Hinton agar against 32 strains of test organisms in six groups. The sample weights of the test compounds were adjusted according to the purity of each compound, so as to give a more accurate measure of the MIC's.
(G+)Ib: Penicillinresistant S. aureus (5 strains)

N. meningitidis (5) = assay: In vitro activity against fastidious bacteria, two-fold serial agar dilution; format: cell-based; conditions: Neisseria meningitidis, read-out: Geometric Mean of MIC
Experimental: (§2) The in vitro activity of some of the preferred compounds against 30 strains of fastidious bacteria was determined by the two-fold serial agar dilution method in Gonococcus agar (GC agar), and the results are shown in Table 3.

S. pneumoniae (5) = assay: as above; format: cell-based; conditions: Streptococcus pneumoniae; GC agar; read-out: Geometric Mean of MIC
Experimental: as §2

[2] = system: H. influenzae (3) (ampicillin resistant); assay: as above; format: cell-based; conditions: Haemophilus influenzae, read-out: Geometric Mean of MIC
Experimental: as §2

[3] = system: H. influenzae (7) (ampicillin sensitive); assay: as above; format: cell-based; conditions: Haemophilus influenzae, GC agar, 7 strains, read-out: Geometric Mean of MIC
Experimental: as §2

N. gonorrhoeae (5) = assay: as above; format: cell-based; conditions: Neisseria gonorrhoeae, read-out: Geometric Mean of MIC
Experimental: as §2

S. pyogenes (5 strains) = assay: as above; format: cell-based; conditions: Streptococcus pyogenes; GC agar; read-out: Geometric Mean of MIC
Experimental: as §2

[4] = Mouse blood levels after single intramuscular injection; format: in vivo, mice
Experimental: The absorption of some of the preferred compounds were determined in mice following a single intramuscular injection of the test compound (dissolved in 0.1M phosphate buffer; pH 7) at a dosage of 20 mg/kg. Blood samples were collected from the orbital sinuses into heparinized capillary tubes and assayed in Nutrient Agar (pH 6.6) using E. coli Ess-22-31 as the test organism. The blood levels at various time intervals, the half-life values (t1/2) and the areas under the curve (AUC) are shown in Table 2.

[5] = system: M. morganii (1 strain), Ent. cloacae (2 strains) and Ser. marcescens (2 strains); assay: MIC, two-fold serial agar dilution, group (G-)-II; format: cell-based; conditions: read-out: Geometric Mean of MIC
Experimental: as §1
(G-)II: M. morganii (1 strain), Ent. cloacae (2 strains) and Ser.

[6] = system: Penicillinsensitive S. aureus (5 strains); assay: MIC, two-fold serial agar dilution, group (G+)-Ia; format: cell-based; conditions: Staphylococcus aureus; (G+)-Ia, 5 strains, Mueller-Hinton agar; read-out: Geometric Mean of MIC
Experimental: as §1
(G+)Ia: Penicillinsensitive S. aureus (5 strains)

[7] = system: Ps. aeruginosa (6 strains); assay: MIC, two-fold serial agar dilution, group (G-)-III; format: cell-based; conditions: Pseudomonas aeruginosa, read-out: Geometric Mean of MIC
Experimental: as §1
(G-)III: Ps. aeruginosa (6 strains)

S. aureus Smith = assay: Median protective dose in infected mice; format: in vivo; conditions: Staphylococcus aureus, im, immediately after intraperitoneal challenge, read-out: PD50
Experimental: (§3) The median protective dose (PD50) of some of the preferred compounds against various microorganisms was determined in mice by intramuscular administration of the test compound immediately after an intraperitoneal bacterial challenge.

E. coli Juhl = assay: Median protective dose in infected mice; format: in vivo; conditions: Escherichia coli, im, immediately after intraperitoneal challenge, read-out: PD50
Experimental: as §3

P. aeruginosa A9843 = assay: Median protective dose in infected mice; format: in vivo; conditions: Pseudomonas aeruginosa, im, immediately after intraperitoneal challenge, read-out: PD50
Experimental: as §3

[8] = system: Cephalothinresistant E. coli (3 strains) and Kl. pneumoniae (3 strains); assay: MIC, two-fold serial agar dilution, group (G-)-Ib; format: cell-based; conditions: Escherichia coli, read-out: Geometric Mean of MIC
Experimental: as §1
(G-)Ib: Cephalothinresistant E. coli (3 strains) and Kl. pneumoniae (3

[9] = system: Cephalothinsensitive E. coli (2 strains), Kl. pneumoniae (1 strain) and Pr. mirabilis (2 strains); assay: MIC, two-fold serial agar dilution, group (G-)-Ia; format: cell-based; conditions: 5 strains, Mueller-Hinton agar, read-out: Geometric Mean of MIC
Experimental: as §1
(G-)Ia: Cephalothinsensitive E. coli (2 strains), Kl. pneumoniae (1
strain) and Pr. mirabilis (2 strains)

[10] = (G+)-Ib, 5 strains, Mueller-Hinton agar
[11] = (G-)-II, 5 strains, Mueller-Hinton agar
[12] = (G-)-III, 6 strains, Mueller-Hinton agar

| Compound | MIC [1, 10] [µg/mL] | AUC ([4]; in vivo, im, 20 mg/kg) [ng·h/mL] | concentration at 10 min ([4]; in vivo, im, 20 mg/kg) [ng/mL] | concentration at 20 min ([4]; in vivo, im, 20 mg/kg) [ng/mL] | concentration at 0.5 h ([4]; in vivo, im, 20 mg/kg) [ng/mL] | concentration at 40 min ([4]; in vivo, im, 20 mg/kg) [ng/mL] | concentration at 50 min ([4]; in vivo, im, 20 mg/kg) [ng/mL] | concentration at 1 h ([4]; in vivo, im, 20 mg/kg) [ng/mL] | concentration at 1.5 h ([4]; in vivo, im, 20 mg/kg) [ng/mL] | concentration at 2 h ([4]; in vivo, im, 20 mg/kg) [ng/mL] | half-life ([4]; in vivo, im, 20 mg/kg) [min] | MIC [5, 11] [µg/mL] | MIC [6] [µg/mL] | ED50 (S. aureus Smith) [mg/kg] | ED50 (E. coli Juhl) [mg/kg] | ED50 (P. aeruginosa A9843) [mg/kg] | MIC [8] [µg/mL] | MIC [9] [µg/mL] | MIC [1] [µg/mL] | MIC [7, 12] [µg/mL] | other results |
| --- | --- | --- | --- | --- | --- | --- | --- | --- | --- | --- | --- | --- | --- | --- | --- | --- | --- | --- | --- | --- | --- |
| Nc1nc(/C(=N/OC2(C(=O)O)CCC2)C(=O)NC2C(=O)N3C(C(=O)[O-])=C(C[n+]4ccc5scnc5c4)CS[C@H]23)cs1 (stereo partly drawn) [Ie, 7-[(Z)-2-(2-Aminothiazol-4-yl)-2-(1-carboxycyclobut-1-oxyimino)-acetamido]-3-{(5-thiazolo[4,5-c]pyridinio)methyl}-3-cephem-4-carboxylate] | 4.4 (≈ 7.15 µM) | 7900 | 13000 | 12000 | 7500 | 4300 | 3000 | 2600 | 510 | 150 | 16 | 0.34 (≈ 0.552 µM) | 2.2 (≈ 3.57 µM) | 3.1 | 0.08 | 1.8 | 0.5 (≈ 0.812 µM) | 0.023 (≈ 0.0374 µM) |  |  | MIC (N. meningitidis (5)): 0.1 µg/mL (≈ 0.162 µM); MIC (S. pneumoniae (5)): 0.2 µg/mL (≈ 0.325 µM); MIC [2]: 0.1 µg/mL (≈ 0.162 µM); MIC [3]: 0.1 µg/mL (≈ 0.162 µM); MIC (N. gonorrhoeae (5)): 0.1 µg/mL (≈ 0.162 µM); MIC (S. pyogenes (5 strains)): 0.2 µg/mL (≈ 0.325 µM); MIC [7]: 1.3 µg/mL (≈ 2.11 µM) |
| CO/N=C(\C(=O)NC1C(=O)N2C(C(=O)[O-])=C(C[n+]3ccc4sc(NC(=O)N5CCCC5)nc4c3)CS[C@H]12)c1csc(N)n1 (stereo partly drawn) [It, 7-[(Z)-2-(2-Aminothiazol-4-yl)-2-methoxyiminoacetamido]-3-[2-(pyrrolidin-1-ylcarbonylamino)-5-thiazolo[4,5-c]pyridinio]methyl-3-cephem-4-carboxylate] |  | 13000 | 19000 | 18000 | 11000 | 7800 | 6600 | 5400 | 2100 | 890 | 24 | 2.8 (≈ 4.35 µM) | 0.53 (≈ 0.823 µM) | 1.9 | 0.2 | > 25 | 0.92 (≈ 1.43 µM) | 0.3 (≈ 0.466 µM) | 1.6 (≈ 2.49 µM) | 34 (≈ 52.8 µM) |  |
| CO/N=C(\C(=O)NC1C(=O)N2C(C(=O)[O-])=C(C[n+]3ccc4sc(NC(=O)OC)nc4c3)CS[C@H]12)c1csc(N)n1 (stereo partly drawn) [Is, 7-[(Z)-2-(2-Aminothiazol-4-yl)-2-methoxyiminoacetamido]-3-(2-methoxycarbonylamino-5-thiazolo[4,5-c]pyridinio)methyl-3-cephem-4-carboxylate] | 0.8 (≈ 1.32 µM) | 13000 | 19000 | 18000 | 14000 | 6700 | 4600 | 4600 | 2200 | 1100 | 26 |  | 0.46 (≈ 0.761 µM) | 1.2 | 0.018 | 10 | 0.69 (≈ 1.14 µM) | 0.038 (≈ 0.0628 µM) |  | 14 (≈ 23.2 µM) | MIC [5]: 0.6 µg/mL (≈ 0.992 µM) |
| CO/N=C(\C(=O)NC1C(=O)N2C(C(=O)[O-])=C(C[n+]3ccc4sc(N(C)C)nc4c3)CS[C@H]12)c1csc(N)n1 (stereo partly drawn) [Iu, 7-[(Z)-2-(2-Aminothiazol-4-yl)-2-methoxyiminoacetamido]-3-(2-dimethylamino-5-thiazolo[4,5-c]pyridinio)methyl-3-cephem-4-carboxylate] | 0.8 (≈ 1.39 µM) | 9800 | 18000 | 13000 | 9600 | 5500 | 3400 | 2600 | 1000 | 340 | 19 |  | 0.46 (≈ 0.8 µM) | 0.48 | 0.013 | 4.6 | 0.11 (≈ 0.191 µM) | 0.012 (≈ 0.0209 µM) |  | 6.3 (≈ 11 µM) | MIC [5]: 0.23 µg/mL (≈ 0.4 µM) |
| Nc1nc(/C(=N/OC2(C(=O)O)CCC2)C(=O)NC2C(=O)N3C(C(=O)[O-])=C(C[n+]4ccc5sc(N)nc5c4)CS[C@H]23)cs1 (stereo partly drawn) [Ik, 7-[(Z)-2-(2-Aminothiazol-4-yl)-2-(1-carboxycyclobut-1-oxyimino)-acetamido]-3-(2-amino-5-thiazolo[4,5-c]pyridinio)methyl-3-cephem-4-carboxylate] | 3.3 (≈ 5.23 µM) |  | 20000 | 16000 | 11000 | 8200 | 5200 | 4100 | 1800 | 670 | 22 | 0.27 (≈ 0.428 µM) | 1.4 (≈ 2.22 µM) | 3 | 0.046 | 5.5 | 0.36 (≈ 0.571 µM) | 0.015 (≈ 0.0238 µM) |  | 1.4 (≈ 2.22 µM) | AUC ([4]; blood, mice, 20 mg/kg im, read-out: AUC): 13000 ng·h/mL |
| C#CCO/N=C(\C(=O)NC1C(=O)N2C(C(=O)[O-])=C(C[n+]3ccc4sc(N)nc4c3)CS[C@H]12)c1csc(N)n1 (stereo partly drawn) [If, 7-[(Z)-2-(2-Aminothiazol-4-yl)-2-(propargyloxyimino)acetamido]-3-(2-amino-5-thiazolo[4,5-c]pyridinio)methyl-3-cephem-4-carboxylate] |  | 9100 | 14000 | 11000 | 7300 | 4200 | 3600 | 3300 | 2000 | 1200 | 34 | 0.35 (≈ 0.613 µM) | 0.3 (≈ 0.526 µM) | 0.36 | 0.013 | 3.3 | 0.4 (≈ 0.701 µM) | 0.029 (≈ 0.0508 µM) | 0.8 (≈ 1.4 µM) | 2.1 (≈ 3.68 µM) |  |
